Patent publication US20250144067A1, “PERSONALIZED STARVATION THERAPY FOR CANCER” (Faeth Therapeutics, Inc., priority 2021, published 2025)
Structures can show the parent of a compound that is named as a salt. Numbered stars: 1 amine (or outer) side, 2 acyl side, 3 side chain; on linkers, the order of the positions; unused ones are H or OH. Bridge positions count the residues as written; N and C are the ends. Peptide text beside a SMILES is read from it. X2 = O=C(CCC[*:2])[*:1]

What was measured:
[1] = test system: NCI-H292 lung cancer cells; experiment: FDA drug screening, complete media vs cholesterol-free media without statin (TABLE 1); format: cell-based, human
[2] = test system: NCI-H292 lung cancer cells; experiment: FDA drug screening, complete media vs cholesterol-free media with simvastatin (TABLE 2); format: cell-based, human; conditions: for Cholesterol-free media + simvastatin (0.04 μM) / Complete Media: NCI-H292 cells
[3] = NCI-H292 cells, cholesterol-free media without statin
[4] = complete vs cholesterol-free media; greater than 0 enhanced anti-cancer activity, about 0 neutral, below 0 antagonists
[5] = drug in cholesterol-free media with simvastatin 0.04 μM
[6] = complete media vs cholesterol-free media + simvastatin (0.04 μM), >0 enhanced anti-cancer activity, about 0 neutral, <0 antagonist
[7] = Complete minus Cholesterol-free; greater than 0 enhanced anti-cancer activity, about 0 neutral, below 0 antagonist
[8] = NCI-H292 cells, FDA drug library screen, cholesterol-free media without statin
[9] = NCI-H292 cells, FDA drug library screen, complete media
[10] = FDA drug library screen, cholesterol-free media with simvastatin 0.04 μM
[11] = FDA drug library screen, complete media
[12] = complete media minus cholesterol-free media + simvastatin, >0 enhanced anti-cancer activity, about 0 neutral, <0 antagonist
[13] = Complete minus Cholesterol-free; >0 enhanced anti-cancer activity, about 0 neutral, <0 antagonist
[14] = NCI-H292 cells, cholesterol-free media without statin, FDA drug library screen
[15] = NCI-H292 cells, complete media, FDA drug library screen
[16] = cholesterol-free media with simvastatin 0.04 μM, FDA drug library screen (TABLE 2)
[17] = complete media, FDA drug library screen (TABLE 2)
[18] = complete media minus cholesterol-free media + simvastatin (0.04 μM), >0 enhanced anti-cancer activity, about 0 neutral, <0 antagonist
[19] = Complete minus Cholesterol-free; […]
[20] = complete media minus cholesterol-free media + simvastatin, […]
[21] = FDA library drug in cholesterol-free media with simvastatin 0.04 μM
[22] = FDA library drug in complete media

NC(=O)N1c2ccccc2C=Cc2ccccc21 [Carbamazepine]
Cholesterol-free [1, 3]: 1.302 | Complete ([1]; NCI-H292 cells, complete media): 0.9337 | Difference [1, 4]: −0.37 | Cholesterol-free media + simvastatin (0.04 μM) [2, 5]: 1.226 | Complete Media ([2]; drug in complete media): 0.9955 | Difference [2, 6]: −0.23

CN1CC(O)C2=C/C(=N/NC(N)=O)C(=O)C=C21 (stereo not drawn) [Carbazochrome]
Difference [1, 7]: −0.14 | Cholesterol-free [1, 8]: 1.112 | Complete [1, 9]: 0.9668 | Cholesterol-free media + simvastatin (0.04 μM) [2, 10]: 1.082 | Complete Media [2, 11]: 1.238 | Difference [2, 12]: 0.16

CC1(C)[C@@H](OC(=O)CCC(=O)O)CC[C@]2(C)[C@H]3C(=O)C=C4[C@@H]5C[C@@](C)(C(=O)O)CC[C@]5(C)CC[C@@]4(C)[C@]3(C)CC[C@@H]12 [Carbenoxolone (disodium)]
Difference [1, 13]: −0.05 | Cholesterol-free [1, 14]: 1.149 | Complete [1, 15]: 1.095 | Cholesterol-free media + simvastatin (0.04 μM) [2, 16]: 0.9745 | Complete Media [2, 17]: 0.9823 | Difference [2, 18]: 0.01

CC[C@H](C)[C@@H]1NC(=O)[C@H](Cc2ccc(OC)cc2)NC(=O)CCCSC[C@@H](C(=O)N2CCC[C@H]2C(=O)N[C@@H](CC(C)C)C(=O)NCC(N)=O)NC(=O)[C@H](CC(N)=O)NC(=O)[C@H](CCC(N)=O)NC1=O [Carbetocin] (Y(Me)IQNCPLG-NH2; linker N-5 via X2)
Difference [1, 19]: −0.26 | Cholesterol-free [1, 3]: 1.283 | Complete ([1]; NCI-H292 cells, complete media): 1.021 | Cholesterol-free media + simvastatin (0.04 μM) [2, 10]: 1.6 | Complete Media [2, 11]: 1.76 | Difference [2, 20]: 0.16

C[C@@](Cc1ccc(O)c(O)c1)(NN)C(=O)O [Carbidopa]
Difference [1, 7]: −0.16 | Cholesterol-free [1, 8]: 1.15 | Complete [1, 9]: 0.9946 | Cholesterol-free media + simvastatin (0.04 μM) [2, 21]: 1.956 | Complete Media [2, 22]: 1.221 | Difference [2, 6]: −0.74

CCOC(=O)n1ccn(C)c1=S [Carbimazole]
Cholesterol-free [1, 14]: 1.183 | Complete [1, 15]: 1.469 | Difference ([1]; complete vs cholesterol-free media; >0 enhanced anti-cancer activity, about 0 neutral, <0 antagonist): 0.29 | Cholesterol-free media + simvastatin (0.04 μM) ([2]; cholesterol-free media with simvastatin 0.04 μM, cell growth value in FDA drug screen): 1.468 | Complete Media ([2]; complete media, cell growth value in FDA drug screen): 1.519 | Difference [2, 12]: 0.05

N[C@@H](CSCC(=O)O)C(=O)O [Carbocisteine]
Difference [1, 13]: −0.04 | Cholesterol-free [1, 14]: 1.486 | Complete [1, 15]: 1.447 | Cholesterol-free media + simvastatin (0.04 μM) [2, 16]: 0.934 | Complete Media [2, 17]: 0.9494 | Difference [2, 18]: 0.02

CCCCC[C@](C)(O)/C=C/[C@@H]1[C@@H](C/C=C\CCCC(=O)O)[C@@H](O)C[C@H]1O.NC(CO)(CO)CO [Carboprost (tromethamine)]
Difference [1, 7]: −0.14 | Cholesterol-free [1, 8]: 1.222 | Complete [1, 9]: 1.08 | Cholesterol-free media + simvastatin (0.04 μM) [2, 21]: 1.591 | Complete Media [2, 22]: 1.306 | Difference [2, 6]: −0.29

CC1=C(C(=O)Nc2ccccc2)SCCO1 [Carboxin]
Difference [1, 19]: −0.07 | Cholesterol-free [1, 14]: 1.397 | Complete [1, 15]: 1.326 | Cholesterol-free media + simvastatin (0.04 μM) [2, 16]: 0.9577 | Complete Media [2, 17]: 0.9272 | Difference ([2]; complete media minus cholesterol-free media + simvastatin (0.04 μM), […]): −0.03

C[N+](C)(CC(=O)Nc1ccccc1)CC(=O)Nc1ccccc1.[Cl-] [Carcainium (chloride)]
Difference [1, 19]: 0.01 | Cholesterol-free [1, 14]: 0.9985 | Complete [1, 15]: 1.004 | Cholesterol-free media + simvastatin (0.04 μM) ([2]; cholesterol-free media with simvastatin 0.04 μM, […]): 1.019 | Complete Media ([2]; complete media, […]): 1.155 | Difference [2, 20]: 0.14

NC(=O)N[C@@H](CCC(=O)O)C(=O)O [Carglumic Acid]
Difference [1, 7]: −0.10 | Cholesterol-free [1, 8]: 1.036 | Complete [1, 9]: 0.9389 | Cholesterol-free media + simvastatin (0.04 μM) [2, 10]: 0.9383 | Complete Media [2, 11]: 1.207 | Difference [2, 12]: 0.27

CN(C)C(=O)N[C@H]1CC[C@H](CCN2CCN(c3cccc(Cl)c3Cl)CC2)CC1 [Cariprazine (hydrochloride)]
Difference [1, 7]: −0.14 | Cholesterol-free [1, 8]: 1.158 | Complete [1, 9]: 1.021 | Cholesterol-free media + simvastatin (0.04 μM) [2, 10]: 1.127 | Complete Media [2, 11]: 1.452 | Difference [2, 12]: 0.32

CCCCCCNC(=O)n1cc(F)c(=O)[nH]c1=O [Carmofur]
Cholesterol-free [1, 3]: 0.5487 | Complete ([1]; NCI-H292 cells, complete media): 0.2009 | Difference [1, 4]: −0.35 | Cholesterol-free media + simvastatin (0.04 μM) [2, 5]: 0.7692 | Complete Media ([2]; drug in complete media): 0.6005 | Difference [2, 6]: −0.17

O=NN(CCCl)C(=O)NCCCl [Carmustine]
Difference [1, 19]: −0.25 | Cholesterol-free [1, 3]: 0.9766 | Complete ([1]; NCI-H292 cells, complete media): 0.7259 | Cholesterol-free media + simvastatin (0.04 μM) [2, 10]: 1.071 | Complete Media [2, 11]: 1.247 | Difference [2, 20]: 0.18
